“And” between values parts separate entries of the source, which are not always exact repeats. Equal values may be shown once. Read-outs that look alike come from different tables or passages of the source.
Tests used:
[1] = for concentration at 6 h: pig, iv, 200 µg/kg BW
[2] = human fatal case, cited from earlier work
[3] = pigs, previous study; cited from earlier work
[4] = one human decedent of five postmortem cases; cited from earlier work
[5] = cited from earlier work
[6] = mice (n = 5), exposure to Magic Gold smoke (3.6% JWH-018, 5.7% JWH-073); cited from earlier work
[7] = pigs, 6 h after single i.v. 200 µg/kg BW

CCc1ccc(C(=O)c2cn(CCCCC(=O)O)c3ccccc23)c2ccccc12 [JWH-210-COOH, JWH-210-pentanoic acid]
Concentration in kidney specimens, individual cases ([1]; pigs, 6 h after i.v. 200 µg/kg BW JWH-210, detectable in two cases): 0.5 ng/g and 1 ng/g

Cc1ccc(C(=O)c2cn(CCCCCF)c3ccccc23)c2ccccc12 [MAM-2201]
Concentration in adipose tissue ([2]; postmortem interval about four days): 1,535 ng/g
Concentration in brain ([2]; postmortem): 4.3 ng/g
Concentration in heart blood ([2]; postmortem): 12.4 ng/mL
Concentration in kidney ([2]; postmortem): 11.2 ng/g
Concentration in liver ([2]; postmortem): 18.1 ng/g

CCCCCc1cc(O)c2c(c1)OC(C)(C)[C@@H]1CCC(C)=C[C@@H]21 [THC, ∆9-tetrahydrocannabinol]
Serum concentration six hours after administration [3]: 7.1 ± 4.3 ng/mL
Peak concentration in muscle tissue [4]: 40 ng/g
LogP [5]: 6.7
concentration at 6 h ([1]; bile): 77 ± 83 ng/g
concentration at 6 h ([1]; brain (cerebellum)): 24 ± 5.8 ng/g
concentration at 6 h ([1]; brain (cerebrum)): 12 ± 3.8 ng/g
concentration at 6 h ([1]; heart): 17 ± 7 ng/g
concentration at 6 h ([1]; kidney (left)): 24 ± 11 ng/g
concentration at 6 h ([1]; kidney (right)): 21 ± 16 ng/g
concentration at 6 h ([1]; liver): 18 ± 3.7 ng/g
concentration at 6 h ([1]; lung (left)): 61 ± 50 ng/g
concentration at 6 h ([1]; lung (right)): 69 ± 37 ng/g
concentration at 6 h ([1]; psoas muscle): 9.1 ± 3.3 ng/g
concentration at 6 h ([1]; skeletal muscle): 16 ± 0.94 ng/g
concentration at 6 h ([1]; spleen): 7.1 ± 3.8 ng/g
Detection in dura [1, 7]: not detected
Detection in vitreous humor (qualitative analysis) [1, 7]: not detected

CCCCCn1cc(C(=O)c2cccc3ccccc23)c2ccccc21 [JWH-018, naphthalen-1-yl-(1-pentylindol-3-yl)methanone]
Concentration in brain specimens twenty hours post-exposure [6]: 19 ± 9 ng/g

CCCCCn1cc(C(=O)c2ccc(CC)c3ccccc23)c2ccccc21 [JWH-210, 4-ethylnaphthalen-1-yl-(1-pentylindol-3-yl)methanone]
Serum concentration six hours after administration [3]: 3.1 ± 1.1 ng/mL
concentration at 6 h ([1]; bile): 26 ± 19 ng/g
concentration at 6 h ([1]; brain (cerebellum)): 32 ± 9 ng/g
concentration at 6 h ([1]; brain (cerebrum)): 20 ± 6.8 ng/g
concentration at 6 h ([1]; dura): 1.7 ± 0.8 ng/g
concentration at 6 h ([1]; heart): 19 ± 6.1 ng/g
concentration at 6 h ([1]; kidney (left)): 43 ± 34 ng/g
concentration at 6 h ([1]; kidney (right)): 53 ± 45 ng/g
concentration at 6 h ([1]; liver): 14 ± 6.2 ng/g
concentration at 6 h ([1]; lung (left)): 8.6 ± 4.4 ng/g
concentration at 6 h ([1]; lung (right)): 6.9 ± 2.1 ng/g
concentration at 6 h ([1]; psoas muscle): 20 ± 9.5 ng/g
concentration at 6 h ([1]; skeletal muscle): 21 ± 8 ng/g
concentration at 6 h ([1]; spleen): 11 ± 6.8 ng/g
Detection in vitreous humor (qualitative analysis) [1, 7]: positive results

hydroxypentyl-RCS-4 [HO-RCS-4]
LogP [5]: 4.08
Concentration in skeletal muscle, individual pigs ([1]; pigs, 6 h after i.v. 200 µg/kg BW RCS-4, only in two pigs): 5.7 ng/g and 1.6 ng/g

COc1ccc(C(=O)c2cn(CCCCC(=O)O)c3ccccc23)cc1 [RCS-4-COOH, RCS-4-pentanoic acid]
Concentration in bile fluid, individual pigs ([1]; pigs, 6 h after i.v. 200 µg/kg BW RCS-4, two pigs): 47 ng/g and 154 ng/g

hydroxypentyl-JWH-210 [HO-JWH-210]
Concentration in abdominal adipose tissue, individual pig ([1]; pigs, 6 h after i.v. 200 µg/kg BW JWH-210, present in one pig only): 6 ng/g
Concentration in perirenal adipose tissue, individual pigs ([1]; pigs, 6 h after i.v. 200 µg/kg BW JWH-210, present in two pigs only): 4.5 ng/g and 9 ng/g
